Experimental data as given in BindingDB's records for doi:10.1021/jm0503751 (University of Dublin, 2006).

Legend:
[1] = target: T1, Alpha-1A adrenergic receptor (Homo sapiens, UniProt P35348)
T1 sequence (P35348 whole entry): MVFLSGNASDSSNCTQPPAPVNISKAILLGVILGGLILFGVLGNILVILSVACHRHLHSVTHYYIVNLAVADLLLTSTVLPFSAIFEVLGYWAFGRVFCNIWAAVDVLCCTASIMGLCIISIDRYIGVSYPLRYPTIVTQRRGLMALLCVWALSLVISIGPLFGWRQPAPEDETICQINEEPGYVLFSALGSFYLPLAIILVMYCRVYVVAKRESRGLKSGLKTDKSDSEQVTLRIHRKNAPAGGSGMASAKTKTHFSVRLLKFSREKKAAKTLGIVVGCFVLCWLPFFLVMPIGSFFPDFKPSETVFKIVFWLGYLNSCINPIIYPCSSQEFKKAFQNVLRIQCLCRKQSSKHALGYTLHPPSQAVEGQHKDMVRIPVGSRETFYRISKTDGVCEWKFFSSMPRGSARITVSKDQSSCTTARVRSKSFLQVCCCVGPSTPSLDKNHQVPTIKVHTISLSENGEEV

[2] = target: T2, Alpha-1B adrenergic receptor (Mus musculus, UniProt Q05D47)
T2 sequence (Q05D47 whole entry): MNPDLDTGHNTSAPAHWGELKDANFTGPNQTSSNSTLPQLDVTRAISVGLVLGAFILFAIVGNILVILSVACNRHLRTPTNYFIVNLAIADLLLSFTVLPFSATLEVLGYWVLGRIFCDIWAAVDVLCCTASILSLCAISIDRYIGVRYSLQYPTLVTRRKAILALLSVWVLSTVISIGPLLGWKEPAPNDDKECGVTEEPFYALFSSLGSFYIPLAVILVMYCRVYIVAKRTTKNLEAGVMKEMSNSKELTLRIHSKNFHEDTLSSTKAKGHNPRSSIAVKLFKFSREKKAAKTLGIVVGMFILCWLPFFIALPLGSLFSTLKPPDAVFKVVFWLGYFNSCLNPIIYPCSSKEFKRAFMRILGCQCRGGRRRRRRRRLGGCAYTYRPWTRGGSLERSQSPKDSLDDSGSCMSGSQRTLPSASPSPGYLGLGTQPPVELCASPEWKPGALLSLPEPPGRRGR

## Cc1c[nH]c(=O)n(CCCN2CCN(c3ccc(F)cc3OCC(F)(F)F)CC2)c1=O
[1]
  Ki: 0.1 µM
[2]
  Ki: 0.079 µM

## CC(C)(Cc1c[nH]c2ccc(Cl)cc12)NCCOc1ccccc1OCC1CC1
[1]
  Ki: 0.016 µM
[2]
  Ki: 0.016 µM

## COc1cc2nc(N3CCN(C(=O)C4CCCO4)CC3)nc(N)c2cc1OC (centres undefined) [6,7-dimethoxy-2-[4-(tetrahydrofuran-2-ylcarbonyl)piperazin-1-yl]quinazolin-4-amine]
[2]
  Ki: 0.002 µM

## COc1cc2nc(N(C)CCCNC(=O)C3CCCO3)nc(N)c2cc1OC (centres undefined) [N-{3-[(4-amino-6,7-dimethoxyquinazolin-2-yl)(methyl)amino]propyl}tetrahydrofuran-2-carboxamide]
[2]
  Ki: 0.01 µM

## COc1cc2nc(N3CCN(C(=O)C4COc5ccccc5O4)CC3)nc(N)c2cc1OC (centres undefined) [UK 33,274]
[2]
  Ki: 0.001 µM

## COc1ccccc1N1CCN(CCCNc2c(C)c(=O)n(C)c(=O)n2C)CC1 [Urapidil-5-methyl]
[1]
  Ki: 0.01 µM
[2]
  Ki: 0.04 µM
